# Experimental data: US6214859A, “Ethylamine derivatives” (Fujimoto Brothers Co., Ltd., priority 1997, dated 2001)
# Counter-ions that a name gives are not always drawn.
# Columns and labels:
# [1] = Toxicity screening using primary cultured hepatocyte (LDH release); format: cell-based, rat; settings: rat, primary hepatocytes, 24 hr, control 0.5% saline or 0.5% DMSO, read-out: Percent control of LDH release
# Procedure: The hepatocytes was prepared from rat liver by collagenase perfusion method and suspension containing 5×10^5 cells/ml were prepared. After cultivation for 24 hr, the suspension was exchanged to the William's Medium E (GIBCO BRL) containing 10 or 100 μM of the compounds of this invention. After cultivation for 24 hr, the activity of lactate dehydrogenase (LDH) released in the medium was measured.
# [2] = system: dopamine release, tuberculum olfactorium; experiment: Release of biogenic amines from brain tissue: dopamine, tuberculum olfactorium; format: in vivo, Wistar rats
# Procedure: (§1) The method described in Life Sci., 56, 611-620 (1995) was used. After Wistar rats were decapitated, appropriate brain samples, which were striatun, substantia nigra, tuberculum olfactorium, locus coeruleus and raphe, were removed quickly and soaked in oxygenated (95% O2 and 5% CO2) Krebs solution at 37° C. The composition of Krebs solution was as follows in […]: NaCl 111, KCl 4.7, CaCl2 2.5, MgSO4 1.64, NaHCO3 25, KH2 PO4 1.2, glucose 11, 50 mg/l ascorbic add and 20 mg/l EDTA-2 Na. The preparations, soaked in one organ bath, were as follows: 1) four pieces of striatum (each halved), 2) four pieces of substantia nigra, 3) four pieces of tuberculum olfactorium; 4) eight pieces of locus coeruleus; 5) eight pieces of raphe. After incubation of the appropriate tissue for 20 min, the Krebs solution was replaced, the tissue soaked for 20 min in Krebs solution dissolving the compounds of this invention and the amount of biogenic amine released during this period of time was estimate. The compounds of this invention and PPAP, control compound, were dissolved in saline and were administered subcutaneously before 30 min to removing brain sample. For measuring noradrenaline and dopamine, samples were purified on 60 mg alumina containing micro columns (BDH Chemicals Ltd.) according to the method described in J. Pharmacol. Exp. Ther., 138, 360-372 (1962) For measuring serotonin, samples were purified on 15 mg Sephadex G-10 micro columns (Pharmacia). Dopamine, noradrenaline and serotonin were determined by high performance liquid chromatography (Waters 746 data module) with electrochemical detection (Waters 460 electrochemical detector). Waters Resolve 5μ Spherical C18 3.9×150 mm column was used as separating column and triethylamine-phosphate buffer (pH 5.2), containing 200 mg/l octane sulfonate sodium and 18 mg/l EDTA-2 Na with 6% acetonitrile, was used as mobile phase. The release amount of appropriate amine was noted as nmol/g tissue released for 20 min. deference of means tested by Student's t-test and significant level was set at P<.05.
# [3] = system: dopamine release, substantia nigra; experiment: Release of biogenic amines from brain tissue: dopamine, substantia nigra; format: in vivo, Wistar rats
# Procedure: as §1
# serotonin release, raphe = experiment: Release of biogenic amines from brain tissue: serotonin, raphe; format: in vivo, Wistar rats
# Procedure: as §1
# [4] = system: rats reduced learning ability by tetrabenazine; experiment: Conditioned avoidance task in the shuttle box (tetrabenazine-treated rats); format: in vivo, rat; settings: tetrabenazine 1 mg/kg s.c., significance and direction
# Procedure: The method described in Life Sci., 58, 817-827 (1996) was used. The effects on conditioned avoidance reflex (CARs) was analyzed in the shuttle box using male and female rats (weighing 200-220 g) whose leaning abilities were reduced by treatment of tetrabenazine. The instrument was constructed, according to the device described in Psychopharmacologia 10, 1-5 (1966) by the Research Institute for Electrical Industry (Budapest, Hungary). The male and female rats (weighing 200-220 g) were trained to cross the berrier under the influence of a conditioned stimulus (CS) (light flash and buzzer sounds). […] And the performance which was not related to this condition was noted as an intersignal reaction (IR). The rats were trained with 100 trials per day for 5 days. One trial consisted of 15 sec intertrial interval. The saline solution of tetrabenazine was administered at a dose of 1 mg/kg subcutaneously before one hour prior to the test and then the solution of the compounds of this invention were administered at the doses of 1, 2, 2.5 and 5 mg/kg subcutaneously with the simultaneous administration of tetrabenazine. The nmbers of CARs, EFs and IRs were automatically counted and evaluated by multi-way analysis of variance (ANOVA).
# [5] = system: noradrenaline release, locus coeruleus; experiment: Release of biogenic amines from brain tissue: noradrenaline, locus coeruleus; format: in vivo, Wistar rats
# Procedure: as §1
# [6] = system: dopamine release, striatum; experiment: Release of biogenic amines from brain tissue: dopamine, striatum; format: in vivo, Wistar rats
# Procedure: as §1
# human platelet MAO-B = target: T1, human platelet MAO-B (Homo sapiens, UniProt P27338); experiment: biochemical; settings: 10^-5 M; read-out: Inhibition rate of MAO-B
# T1 construct: The suspension was used as enzyme for MAO activity assay in blood platelets; from tissue; host or cells: human blood platelets (frozen, thawed and sonicated platelet rich plasma)
# T1 sequence (P27338 1-520): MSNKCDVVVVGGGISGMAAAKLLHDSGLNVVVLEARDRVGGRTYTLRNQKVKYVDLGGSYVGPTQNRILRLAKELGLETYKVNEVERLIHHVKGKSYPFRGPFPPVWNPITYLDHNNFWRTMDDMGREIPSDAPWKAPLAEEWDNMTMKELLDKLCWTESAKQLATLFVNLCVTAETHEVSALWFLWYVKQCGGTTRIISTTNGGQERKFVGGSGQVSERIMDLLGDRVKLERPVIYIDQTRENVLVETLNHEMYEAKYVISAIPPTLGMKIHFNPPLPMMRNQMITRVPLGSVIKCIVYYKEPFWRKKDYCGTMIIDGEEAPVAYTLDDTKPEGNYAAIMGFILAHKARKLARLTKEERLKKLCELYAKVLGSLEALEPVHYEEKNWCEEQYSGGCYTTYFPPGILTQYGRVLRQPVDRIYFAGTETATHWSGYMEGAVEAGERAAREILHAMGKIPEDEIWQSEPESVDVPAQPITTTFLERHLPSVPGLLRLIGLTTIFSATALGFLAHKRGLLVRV
# Procedure: Human blood added with 3.8% citric acid was centrifuged at 950 rpm for 10 min and platelet rich plasma (PRP) was obtained. The residual blood cell was centrifuged at 3,000 rpm for 10 min and platelet poor plasma (PPP) was obtained. After blood platelets were measured from a part of PRP, PRP and PPP were frozen at -20° C. They were thawed and were sonicated to be dispersed and suspended when MAO activity was measured. The suspension was used as enzyme for MAO activity assay in blood platelets. In addition, almost all of MAO in blood platelets have been known to be B type.
# MAO-B activity was determined according to the method described in Biochem. Pharmacol., 14, 1684-1685 (1965). […] The mixture was incubated at 37° C. for 5 min. After 80 μl of PRP or PPP was added to it, the mixture was incubated at 37° C. for 20 min. Thereafter, 120 μl of substrate (0.33 mg/ml kynuramine dihydrobromide) was added thereto. After incubation at 37° C. for 30 min, 800 μl of 10% trichloroacetic acid were added to stop the reaction and the solution was centrifuged at 3,000 rpm for 10 min. To 1 ml of the supernatant, 2 ml of 1 N NaOH was added and fluorescence of the solution was measured at Ex 312 nm and Em 380 nm. PRP was prepared to 250,000 cell/μl as amounts of blood platelets with […] phosphate buffer solution and 4-hydroxyquinoline was used as standard for measurement.
smiles,measurement,setting,value
"CCCNC(CCC)Cc1cc2ccccc2[nH]1 (stereo not shown) [Compound No. 19, 1-(Indol-2-yl)-2-propylaminopentane Hydrochloride]","activity at 24 h, 10 µM",[1],82.4 ± 8.34%
same,"activity at 24 h, 100 µM",[1],180 ± 5.54%
"CCCNC(CCC)Cc1cc2ccccc2s1.Cl (stereo not shown) [compound 38, 1-(2-Benzothienyl)-2-propylaminopentane Hydrochloride]","Release of dopamine, tuberculum olfactorium",[2]; 0.01 mg/kg s.c.,"11.5 ± 0.14 nmol/g tissue, for 20 min"
same,"Release of dopamine, substantia nigra",[3]; 0.01 mg/kg s.c.,"14.0 ± 0.23 nmol/g tissue, for 20 min"
same,"Release of serotonin, raphe","serotonin release, raphe; 0.01 mg/kg s.c.","0.375 ± 0.02 nmol/g tissue, for 20 min"
same,Escape Failures (EFs),[4]; 1 mg/kg s.c.,**** .dwnarw.
same,Condition Avoidance Reflex (CARs),[4]; 2.5 mg/kg s.c.,**** .Arrow-up bold.
same,Intersignal Reactions (IRs),[4]; 2.5 mg/kg s.c.,* .Arrow-up bold.
same,"Release of noradrenaline, locus coeruleus",[5]; 0.01 mg/kg s.c.,"3.6 ± 0.05 nmol/g tissue, for 20 min"
same,"Release of dopamine, striatum",[6]; 0.01 mg/kg s.c.,"7.9 ± 0.19 nmol/g tissue, for 20 min"
CCCC(Cc1ccc2ccccc2c1)NCC(C)(C)C (stereo not shown) [Compound No. 14],"activity at 24 h, 10 µM",[1],108 ± 4.18%
same,"activity at 24 h, 100 µM",[1],131 ± 7.08%
"CCCNC(CCC)Cc1ccc2c(c1)CCO2 (stereo not shown) [Compound No. 36, 1-(2,3-Dihydrobenzofuran-5-yl)-2-propylaminopentane Hydrochloride]","activity at 24 h, 10 µM",[1],101 ± 2.24%
same,"activity at 24 h, 100 µM",[1],111 ± 6.58%
CCCC(Cc1ccc2c(c1)OCO2)NC(CC)CC (stereo not shown) [Compound No. 31],"activity at 24 h, 10 µM",[1],102.5 ± 0.84%
same,"activity at 24 h, 100 µM",[1],153 ± 4.35%
"CCCNC(CCC)Cc1ccc2c(c1)OCCO2 (stereo not shown) [Compound No. 35, 1-(1,4-Benzodioxan-6-yl)-2-propylaminopentane Hydrochloride]","activity at 24 h, 10 µM",[1],103 ± 10.6%
same,"activity at 24 h, 100 µM",[1],147 ± 5.07%
"CCCNC(CCC)Cc1csc2ccccc12.Cl (stereo not shown) [compound 39, 1-(3-Benzothienyl)-2-propylaminopentane Hydrochloride]","Release of dopamine, tuberculum olfactorium",[2]; 0.01 mg/kg s.c.,"10.9 ± 0.25 nmol/g tissue, for 20 min"
same,"Release of dopamine, substantia nigra",[3]; 0.01 mg/kg s.c.,"12.0 ± 0.34 nmol/g tissue, for 20 min"
same,"Release of serotonin, raphe","serotonin release, raphe; 0.01 mg/kg s.c.","0.256 ± 0.01 nmol/g tissue, for 20 min"
same,Escape Failures (EFs),[4]; 1 mg/kg s.c.,*** .dwnarw.
same,Condition Avoidance Reflex (CARs),[4]; 2.5 mg/kg s.c.,**** .Arrow-up bold.
same,Escape Failures (EFs),[4]; 2.5 mg/kg s.c.,**** .dwnarw.
same,"Release of noradrenaline, locus coeruleus",[5]; 0.01 mg/kg s.c.,"4.1 ± 0.15 nmol/g tissue, for 20 min"
same,"Release of dopamine, striatum",[6]; 0.01 mg/kg s.c.,"7.1 ± 0.15 nmol/g tissue, for 20 min"
CCCNC(CC)Cc1ccc2ccccc2c1 (stereo not shown) [Compound No. 10],"Release of dopamine, tuberculum olfactorium",[2]; 1.00 mg/kg s.c.,"5.6 ± 0.35 nmol/g tissue, for 20 min"
same,"Release of dopamine, substantia nigra",[3]; 1.00 mg/kg s.c.,"6.2 ± 0.31 nmol/g tissue, for 20 min"
same,inhibition at 10 µM,human platelet MAO-B,37.2%
same,"Release of serotonin, raphe","serotonin release, raphe; 1.00 mg/kg s.c.","0.603 ± 0.10 nmol/g tissue, for 20 min"
same,"Release of noradrenaline, locus coeruleus",[5]; 1.00 mg/kg s.c.,"2.9 ± 0.15 nmol/g tissue, for 20 min"
same,"Release of dopamine, striatum",[6]; 1.00 mg/kg s.c.,"3.3 ± 0.22 nmol/g tissue, for 20 min"
"CCCNC(CCC)Cc1ccc2cc[nH]c2c1.Cl (stereo not shown) [compound 22, 1-(Indol-6-yl)-2-propylaminopentane Hydrochloride]","Release of dopamine, tuberculum olfactorium",[2]; 0.01 mg/kg s.c.,"9.7 ± 0.17 nmol/g tissue, for 20 min"
same,"Release of dopamine, substantia nigra",[3]; 0.01 mg/kg s.c.,"11.9 ± 0.39 nmol/g tissue, for 20 min"
same,"Release of serotonin, raphe","serotonin release, raphe; 0.01 mg/kg s.c.","0.322 ± 0.01 nmol/g tissue, for 20 min"
same,Condition Avoidance Reflex (CARs),[4]; 0.5 mg/kg s.c.,* .Arrow-up bold.
same,Condition Avoidance Reflex (CARs),[4]; 1 mg/kg s.c.,*** .Arrow-up bold.
same,Condition Avoidance Reflex (CARs),[4]; 5 mg/kg s.c.,**** .Arrow-up bold.
same,Escape Failures (EFs),[4]; 5 mg/kg s.c.,* .dwnarw.
same,"Release of noradrenaline, locus coeruleus",[5]; 0.01 mg/kg s.c.,"4.8 ± 0.05 nmol/g tissue, for 20 min"
same,"Release of dopamine, striatum",[6]; 0.01 mg/kg s.c.,"6.5 ± 0.06 nmol/g tissue, for 20 min"
CCCNC(CCC)Cc1ccc2cc(OC)ccc2c1 (stereo not shown) [Compound No. 15],Condition Avoidance Reflex (CARs),[4]; 5 mg/kg s.c.,* .Arrow-up bold.
"CCCCNC(CCC)Cc1ccc2c(c1)OCO2.Cl (stereo not shown) [Compound No. 29, 1-(1,3-Benzodioxol-5-yl)-2-butylaminopentane Hydrochloride]",Condition Avoidance Reflex (CARs),[4]; 2.5 mg/kg s.c.,* .Arrow-up bold.
same,Condition Avoidance Reflex (CARs),[4]; 5 mg/kg s.c.,*** .Arrow-up bold.
same,Intersignal Reactions (IRs),[4]; 5 mg/kg s.c.,*** .dwnarw.
same,"activity at 24 h, 10 µM",[1],103 ± 6.02%
same,"activity at 24 h, 100 µM",[1],101 ± 2.94%
"CCCNC(CCC)Cc1ccc2c(c1)CCC2.Cl (stereo not shown) [Compound No. 37, 1-(Indan-5-yl)-2-propylaminopentane Hydrochloride]",Condition Avoidance Reflex (CARs),[4]; 5 mg/kg s.c.,* .Arrow-up bold.
same,"activity at 24 h, 10 µM",[1],83.8 ± 5.65%
same,"activity at 24 h, 100 µM",[1],193 ± 8.51%
"CCCC(Cc1ccc2c(c1)OCO2)Nc1ccc(C)cc1.Cl (stereo not shown) [Compound No. 33, 1-(1,3-Benzodioxol-5-yl)-2-p-toluidinopentane Hydrochloride]",Condition Avoidance Reflex (CARs),[4]; 5 mg/kg s.c.,* .Arrow-up bold.
same,Intersignal Reactions (IRs),[4]; 5 mg/kg s.c.,* .dwnarw.
same,"activity at 24 h, 10 µM",[1],94 ± 4.16%
same,"activity at 24 h, 100 µM",[1],152 ± 5.71%
CCCC(Cc1ccc2c(c1)OCO2)NC(C)CC (stereo not shown) [Compound No. 30],Condition Avoidance Reflex (CARs),[4]; 5 mg/kg s.c.,**** .Arrow-up bold.
same,Intersignal Reactions (IRs),[4]; 5 mg/kg s.c.,* .dwnarw.
same,"activity at 24 h, 10 µM",[1],99.5 ± 5.44%
same,"activity at 24 h, 100 µM",[1],138 ± 4.57%
